Data reported in ChEMBL document CHEMBL1201862, “PubChem BioAssay data set” (2004).
Calls of active or inactive are those of the source.

Assays:
Protein skinhead-1 = target: T1, Protein skinhead-1 (Caenorhabditis elegans, UniProt P34707); type: functional
T1 sequence (P34707 whole entry): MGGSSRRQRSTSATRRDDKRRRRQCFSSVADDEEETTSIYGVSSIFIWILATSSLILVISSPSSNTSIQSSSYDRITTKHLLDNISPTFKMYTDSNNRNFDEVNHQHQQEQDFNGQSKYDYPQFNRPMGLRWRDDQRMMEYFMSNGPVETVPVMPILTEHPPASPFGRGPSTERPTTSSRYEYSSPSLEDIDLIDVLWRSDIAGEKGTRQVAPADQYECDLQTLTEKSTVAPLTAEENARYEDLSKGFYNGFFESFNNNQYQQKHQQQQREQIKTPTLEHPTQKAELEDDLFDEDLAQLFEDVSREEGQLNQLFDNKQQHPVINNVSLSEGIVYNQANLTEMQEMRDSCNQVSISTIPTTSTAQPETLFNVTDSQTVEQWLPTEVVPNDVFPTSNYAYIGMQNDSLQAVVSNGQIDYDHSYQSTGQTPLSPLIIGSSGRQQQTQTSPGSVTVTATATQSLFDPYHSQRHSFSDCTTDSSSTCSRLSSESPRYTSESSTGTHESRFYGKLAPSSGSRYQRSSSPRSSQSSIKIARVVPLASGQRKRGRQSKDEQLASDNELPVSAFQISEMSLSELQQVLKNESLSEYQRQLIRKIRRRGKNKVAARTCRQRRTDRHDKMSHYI

[1] = Shn3 3'UTR reporter inhibitors, dose response, cell-based, Clone20 osteoblasts, firefly luciferase, cherry-picked (AID 624132); type: functional;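 further: firefly luciferase luminescence from reporter carrying the Shn3 3'UTR in osteoblasts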
[2] = target: FAD-linked sulfhydryl oxidase ALR (Homo sapiens, UniProt P55789); experiment: inhibitors of human ALR sulfhydryl oxidase, dose response, biochemical, H2O2 detection, luminescence, cherry-pick (AID 493248)
Sequence of FAD-linked sulfhydryl oxidase ALR (P55789 whole entry): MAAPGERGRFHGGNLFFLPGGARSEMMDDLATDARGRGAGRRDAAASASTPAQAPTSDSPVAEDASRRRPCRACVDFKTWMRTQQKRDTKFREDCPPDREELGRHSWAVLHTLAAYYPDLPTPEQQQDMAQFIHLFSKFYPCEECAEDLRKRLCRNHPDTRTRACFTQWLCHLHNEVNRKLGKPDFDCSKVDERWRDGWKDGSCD

[3] = HepG2 cell cytotoxicity, dose response, cytotoxicity control for Shn3 inhibitor project, CellTiter-Glo, cherry-picked (AID 624134); type: functional, cell-based
[4] = control 3'UTR Renilla luciferase suppression, dose response, counter-screen for Shn3 inhibitor project, cell-based, Clone20-Shn3RL, cherry-picked (AID 624133); type: functional
Nonstructural protein 1 = Nonstructural protein 1 (Influenza A virus, UniProt Q194T2); type: functional, Influenza A virus (A/California/07/2009(H1N1))
Sequence of Nonstructural protein 1 (Q194T2 whole entry): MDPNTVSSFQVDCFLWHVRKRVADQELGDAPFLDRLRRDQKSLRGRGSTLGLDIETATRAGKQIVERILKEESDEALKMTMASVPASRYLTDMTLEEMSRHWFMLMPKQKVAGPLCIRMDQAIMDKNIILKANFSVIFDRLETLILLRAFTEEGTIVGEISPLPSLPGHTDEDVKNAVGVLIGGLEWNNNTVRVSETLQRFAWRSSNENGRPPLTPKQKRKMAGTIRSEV

Cytochrome P450 1A2 = target: T2, Cytochrome P450 1A2 (Homo sapiens, UniProt P05177);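 further: PubChem cytochrome P450 panel assay, CYP1A2 panel member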
T2 sequence (P05177 whole entry): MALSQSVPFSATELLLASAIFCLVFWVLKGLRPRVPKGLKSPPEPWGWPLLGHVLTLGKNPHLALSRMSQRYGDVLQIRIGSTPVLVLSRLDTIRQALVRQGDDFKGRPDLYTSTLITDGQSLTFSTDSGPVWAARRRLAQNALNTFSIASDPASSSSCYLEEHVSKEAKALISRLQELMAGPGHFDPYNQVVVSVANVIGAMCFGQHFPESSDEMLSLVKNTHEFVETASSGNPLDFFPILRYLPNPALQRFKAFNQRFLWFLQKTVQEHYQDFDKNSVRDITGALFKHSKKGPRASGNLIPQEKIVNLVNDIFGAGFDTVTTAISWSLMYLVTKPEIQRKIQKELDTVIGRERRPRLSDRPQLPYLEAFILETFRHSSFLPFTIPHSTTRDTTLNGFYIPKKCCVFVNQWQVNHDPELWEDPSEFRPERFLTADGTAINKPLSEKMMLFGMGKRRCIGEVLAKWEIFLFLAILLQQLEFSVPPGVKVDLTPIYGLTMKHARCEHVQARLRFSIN

Cytochrome P450 2C9 = Cytochrome P450 2C9 (Homo sapiens, UniProt P11712)
Sequence of Cytochrome P450 2C9 (P11712 whole entry): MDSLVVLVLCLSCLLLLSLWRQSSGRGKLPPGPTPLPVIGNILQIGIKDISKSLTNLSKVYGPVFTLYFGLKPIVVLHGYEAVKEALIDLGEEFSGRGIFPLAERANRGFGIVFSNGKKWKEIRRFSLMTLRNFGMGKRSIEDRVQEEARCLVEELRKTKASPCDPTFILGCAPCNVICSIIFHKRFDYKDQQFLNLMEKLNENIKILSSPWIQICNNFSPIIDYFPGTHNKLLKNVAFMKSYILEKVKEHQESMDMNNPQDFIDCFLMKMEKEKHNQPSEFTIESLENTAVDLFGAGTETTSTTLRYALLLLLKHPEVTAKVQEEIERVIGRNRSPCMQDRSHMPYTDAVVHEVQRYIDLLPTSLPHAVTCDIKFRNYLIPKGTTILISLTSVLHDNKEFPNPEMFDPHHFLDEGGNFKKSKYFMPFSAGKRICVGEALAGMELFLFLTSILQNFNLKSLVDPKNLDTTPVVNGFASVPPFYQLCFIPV

Streptokinase A = target: T3, Streptokinase A (Streptococcus pyogenes serotype M1, UniProt P10520); experiment: S. pyogenes streptokinase expression inhibitors, potency, dose response, plasminogen activation absorbance, OD405 (AID 1914); type: functional, Streptococcus pyogenes M1 GAS;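 further: secreted streptokinase activity via plasminogen activation per viability signal from cell pellet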
T3 sequence (P10520 whole entry): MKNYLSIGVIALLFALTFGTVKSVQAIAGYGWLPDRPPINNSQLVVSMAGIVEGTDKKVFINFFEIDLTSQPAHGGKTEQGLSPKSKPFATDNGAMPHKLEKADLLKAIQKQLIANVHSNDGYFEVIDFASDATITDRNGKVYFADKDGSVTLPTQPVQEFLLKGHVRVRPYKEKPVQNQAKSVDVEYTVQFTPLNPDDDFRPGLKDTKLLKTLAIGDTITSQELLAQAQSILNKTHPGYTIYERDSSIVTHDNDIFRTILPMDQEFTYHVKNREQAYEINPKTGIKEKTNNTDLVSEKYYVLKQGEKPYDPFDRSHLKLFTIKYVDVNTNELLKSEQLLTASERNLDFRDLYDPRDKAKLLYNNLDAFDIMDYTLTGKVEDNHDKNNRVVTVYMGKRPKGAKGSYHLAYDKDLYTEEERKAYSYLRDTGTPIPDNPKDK

[5] = off-target signal loss in HeLa-CEM21 co-culture – HeLa F-luc CTL cells, cherry-picked, counter-screen for HIV-1 Env fusion inhibitor project, dose response (AID 652040); type: functional, cell-based;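 further: potency for signal decrease marking cytotoxic or nonspecific inhibition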
[6] = ZM109 Env clade C HIV-1 fusion inhibitors, dose response, HeLa effector, CEM target cells, luciferase, cherry-pick (AID 652058); type: functional, cell-based
Streptococcus = experiment: Group A Streptococcus viability loss, dose response, counter-screen for streptokinase expression inhibitor project, luminescence, BacTiterGlo (AID 1915); type: functional, organism-based;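 further: potency for reduction of bacterial viability or growth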
[7] = system: Streptococcus sp. 'group A'; experiment: growth inhibition of control SK(-) GAS strain, dose response, counter-screen for streptokinase expression inhibitor project, luminescence, kanamycin, BacTiterGlo, confirmation (AID 1900); type: functional, organism-based
[8] = inhibitors of HIV Env-driven cell fusion, dose response, cherry-pick (AID 652057); type: functional, cell-based
[9] = HEp-2 cell cytotoxicity, dose response, cytotoxicity control for RSV inhibitor project, HTS (AID 2410); type: functional; details: human respiratory syncytial virus
[10] = target: Peroxisome proliferator-activated receptor gamma/Nuclear receptor coactivator 2 (Homo sapiens, UniProt P37231); type: functional;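 further: agonist potency for raising coactivator recruitment to the receptor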
[11] = target: Peroxisome proliferator-activated receptor gamma/Nuclear receptor coactivator 3 (Homo sapiens, UniProt P37231); type: functional;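 further: agonist potency for raising coactivator recruitment to the receptor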
Sequence of Peroxisome proliferator-activated receptor gamma/Nuclear receptor coactivator 3 (P37231 whole entry): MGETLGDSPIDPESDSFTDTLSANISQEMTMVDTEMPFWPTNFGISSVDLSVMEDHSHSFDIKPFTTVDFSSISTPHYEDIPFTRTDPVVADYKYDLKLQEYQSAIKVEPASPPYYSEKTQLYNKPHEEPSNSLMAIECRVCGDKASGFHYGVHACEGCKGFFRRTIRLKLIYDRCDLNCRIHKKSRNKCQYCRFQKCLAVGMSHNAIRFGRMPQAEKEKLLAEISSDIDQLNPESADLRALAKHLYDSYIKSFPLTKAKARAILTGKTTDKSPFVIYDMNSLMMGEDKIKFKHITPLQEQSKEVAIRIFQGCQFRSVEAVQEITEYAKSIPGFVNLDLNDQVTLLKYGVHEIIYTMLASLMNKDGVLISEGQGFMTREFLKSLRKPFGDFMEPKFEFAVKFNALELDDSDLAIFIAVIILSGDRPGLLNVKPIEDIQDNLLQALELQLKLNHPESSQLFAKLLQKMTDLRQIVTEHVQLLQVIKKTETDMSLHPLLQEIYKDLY
Sequence of Peroxisome proliferator-activated receptor gamma/Nuclear receptor coactivator 3 (Q9Y6Q9 whole entry, further chain): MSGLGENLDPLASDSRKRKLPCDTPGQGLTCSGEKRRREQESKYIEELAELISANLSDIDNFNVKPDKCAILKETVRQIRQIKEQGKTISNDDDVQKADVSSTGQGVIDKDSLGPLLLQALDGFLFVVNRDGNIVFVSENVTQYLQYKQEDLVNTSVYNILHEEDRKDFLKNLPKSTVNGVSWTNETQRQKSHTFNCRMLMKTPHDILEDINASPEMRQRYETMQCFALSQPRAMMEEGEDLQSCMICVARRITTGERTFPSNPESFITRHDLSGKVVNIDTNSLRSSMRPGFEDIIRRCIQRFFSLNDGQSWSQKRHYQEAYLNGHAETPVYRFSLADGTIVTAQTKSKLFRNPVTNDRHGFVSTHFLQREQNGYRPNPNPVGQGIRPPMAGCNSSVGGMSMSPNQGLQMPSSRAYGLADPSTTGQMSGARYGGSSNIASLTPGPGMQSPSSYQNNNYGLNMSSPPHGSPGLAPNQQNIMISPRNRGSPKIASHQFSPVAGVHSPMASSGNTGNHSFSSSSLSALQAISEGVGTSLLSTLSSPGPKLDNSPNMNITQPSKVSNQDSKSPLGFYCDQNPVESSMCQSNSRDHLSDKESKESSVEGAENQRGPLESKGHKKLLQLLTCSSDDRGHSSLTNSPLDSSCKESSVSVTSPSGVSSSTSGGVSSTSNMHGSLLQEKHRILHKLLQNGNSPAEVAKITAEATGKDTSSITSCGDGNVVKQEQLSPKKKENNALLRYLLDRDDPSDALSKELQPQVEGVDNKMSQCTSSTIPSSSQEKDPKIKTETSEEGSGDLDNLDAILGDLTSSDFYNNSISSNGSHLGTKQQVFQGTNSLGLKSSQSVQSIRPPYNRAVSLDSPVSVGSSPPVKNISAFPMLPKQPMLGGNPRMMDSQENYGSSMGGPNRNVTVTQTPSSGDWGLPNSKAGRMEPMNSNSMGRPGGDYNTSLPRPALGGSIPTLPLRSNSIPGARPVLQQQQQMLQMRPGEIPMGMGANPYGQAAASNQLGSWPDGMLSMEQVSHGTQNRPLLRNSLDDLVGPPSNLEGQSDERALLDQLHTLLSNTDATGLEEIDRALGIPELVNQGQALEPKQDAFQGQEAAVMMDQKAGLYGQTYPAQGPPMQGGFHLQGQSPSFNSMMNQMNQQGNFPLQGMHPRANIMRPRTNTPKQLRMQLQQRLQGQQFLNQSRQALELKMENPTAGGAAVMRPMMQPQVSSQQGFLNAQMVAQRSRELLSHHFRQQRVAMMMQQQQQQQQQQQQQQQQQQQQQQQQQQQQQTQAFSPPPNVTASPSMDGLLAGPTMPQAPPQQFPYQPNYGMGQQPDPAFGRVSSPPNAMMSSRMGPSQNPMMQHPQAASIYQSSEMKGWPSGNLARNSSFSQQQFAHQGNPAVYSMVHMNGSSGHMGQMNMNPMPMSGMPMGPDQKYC

[12] = target: Peroxisome proliferator-activated receptor gamma/Nuclear receptor coactivator 1 (Homo sapiens, UniProt P37231); type: functional;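 further: agonist potency as compounds enhance coactivator SRC-1 recruitment to PPARgamma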
Sequence of Peroxisome proliferator-activated receptor gamma/Nuclear receptor coactivator 1 (P37231 whole entry): as the sequence (P37231 whole entry) above
Sequence of Peroxisome proliferator-activated receptor gamma/Nuclear receptor coactivator 1 (Q15788 whole entry, further chain): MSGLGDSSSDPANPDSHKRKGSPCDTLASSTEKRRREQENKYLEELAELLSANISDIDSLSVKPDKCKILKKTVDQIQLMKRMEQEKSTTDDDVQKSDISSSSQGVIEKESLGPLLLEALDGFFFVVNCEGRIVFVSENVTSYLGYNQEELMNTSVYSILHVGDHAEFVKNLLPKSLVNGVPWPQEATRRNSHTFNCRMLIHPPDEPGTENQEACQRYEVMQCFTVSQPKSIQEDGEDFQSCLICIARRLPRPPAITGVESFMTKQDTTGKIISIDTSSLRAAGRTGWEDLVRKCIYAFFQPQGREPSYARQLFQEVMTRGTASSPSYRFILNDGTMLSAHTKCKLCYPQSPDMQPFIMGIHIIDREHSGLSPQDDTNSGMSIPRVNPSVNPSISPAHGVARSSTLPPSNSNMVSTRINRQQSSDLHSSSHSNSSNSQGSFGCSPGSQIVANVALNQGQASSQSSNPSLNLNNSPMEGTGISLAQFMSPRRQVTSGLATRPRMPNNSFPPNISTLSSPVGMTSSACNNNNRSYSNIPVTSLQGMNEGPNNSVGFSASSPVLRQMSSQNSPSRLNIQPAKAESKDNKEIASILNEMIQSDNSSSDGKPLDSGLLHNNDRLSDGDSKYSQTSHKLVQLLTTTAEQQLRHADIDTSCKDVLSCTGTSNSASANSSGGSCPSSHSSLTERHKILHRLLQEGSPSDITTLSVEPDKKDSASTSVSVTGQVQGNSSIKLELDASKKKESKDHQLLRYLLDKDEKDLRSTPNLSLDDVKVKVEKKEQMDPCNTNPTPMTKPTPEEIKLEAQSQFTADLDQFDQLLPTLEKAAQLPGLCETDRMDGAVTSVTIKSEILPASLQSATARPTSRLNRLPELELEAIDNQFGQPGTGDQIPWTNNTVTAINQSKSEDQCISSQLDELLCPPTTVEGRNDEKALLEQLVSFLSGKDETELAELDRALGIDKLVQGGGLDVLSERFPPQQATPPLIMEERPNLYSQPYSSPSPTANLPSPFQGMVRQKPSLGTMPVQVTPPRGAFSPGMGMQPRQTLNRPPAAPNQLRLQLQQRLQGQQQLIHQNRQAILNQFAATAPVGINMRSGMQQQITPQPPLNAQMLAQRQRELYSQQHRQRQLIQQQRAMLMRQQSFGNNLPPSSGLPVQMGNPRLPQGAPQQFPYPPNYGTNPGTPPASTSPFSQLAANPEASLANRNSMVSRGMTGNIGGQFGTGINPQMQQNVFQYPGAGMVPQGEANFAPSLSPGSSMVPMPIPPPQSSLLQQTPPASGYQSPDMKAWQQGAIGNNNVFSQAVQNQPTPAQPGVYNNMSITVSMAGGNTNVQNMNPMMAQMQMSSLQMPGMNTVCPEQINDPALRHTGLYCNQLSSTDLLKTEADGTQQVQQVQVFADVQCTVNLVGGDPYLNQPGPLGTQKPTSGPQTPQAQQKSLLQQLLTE

Vero = experiment: cells; type: functional; details: Chlorocebus sabaeus
[13] = target: T4, Carboxy-terminal domain RNA polymerase II polypeptide A small phosphatase 1 (Homo sapiens, UniProt Q9GZU7); experiment: inhibitors of CTDSP1, concentration-response testing, biochemical assay, absorbance-based, actives from ultra-high-throughput screening (AID 540297); type: functional
T4 sequence (Q9GZU7 whole entry): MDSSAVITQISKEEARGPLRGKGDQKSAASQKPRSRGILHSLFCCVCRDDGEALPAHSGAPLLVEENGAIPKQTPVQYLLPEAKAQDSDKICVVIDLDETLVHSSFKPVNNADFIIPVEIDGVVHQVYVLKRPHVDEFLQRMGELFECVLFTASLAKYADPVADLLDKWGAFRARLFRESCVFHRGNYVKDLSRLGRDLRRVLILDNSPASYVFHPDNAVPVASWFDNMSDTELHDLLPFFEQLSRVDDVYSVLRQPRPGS

[14] = target: Heat shock protein HSP 90-alpha (Homo sapiens, UniProt P07900); type: functional, organism-based
[15] = inhibitors of clade B AD8 Env fusion, dose response, cell-based, cherry-pick (AID 652062); type: functional;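 further: luciferase signal from cell-cell fusion driven by HIV-1 clade B AD8 Env; potency is for inhibitors of fusion seen as a drop in luminescence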
Fatty acid synthase = Fatty acid synthase (Homo sapiens, UniProt P49327); experiment: FAS thioesterase domain inhibitors, dose response, biochemical, kinetic fluorescence intensity (AID 624326); type: functional;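 further: rate of fluorescence rise from hydrolysis of a fluorogenic O-methyl fluorescein ester substrate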
SN12K1 = experiment: cells; type: functional; details: Homo sapiens
P388/ADR = experiment: cells; type: functional; details: Mus musculus

SMILES: COc1ccccc1C(=O)Nc1ccc(Br)c2cccnc12
- IC50 (Protein skinhead-1): > 100 µM (inactive)

SMILES: COC(=O)/C=C/S(=O)(=O)c1ccc(NC(C)=O)cc1
- AC50 [1]: 7.3 µM (active)
- AC50 [2]: 0.118 µM (active)
- AC50 [3]: 42.2 µM (active)
- AC50 [4]: 14.2 µM (active)

SMILES: N#Cc1nc(-c2ccco2)oc1N1CCc2ccccc2C1
- IC50 (Nonstructural protein 1): > 100 µM (active)

SMILES: CCCCCCc1nc2ccccc2c(=O)n1NC(=O)c1c(O)c2c(n(CC(C)C)c1=O)CCCC2
- AC50 (Cytochrome P450 1A2): 15.8 µM (inconclusive)
- AC50 (Cytochrome P450 2C9): 0.708 µM (inconclusive)
- EC50 (Streptokinase A): > 150 µM (not active)
- AC50 [5]: 4.42 µM (active)
- AC50 [6]: 69.4 µM (active)
- EC50 (Streptococcus): > 150 µM (not active)
- EC50 [7]: 84.9 µM (active)
- AC50 [8]: 22.8 µM (active)

SMILES: Cn1c(=O)n(C)c2cc(/C=C(/C#N)C(=O)NCc3ccco3)ccc21
- IC50 (Protein skinhead-1): > 100 µM (inactive)

SMILES: c1coc(CN(Cc2ccco2)c2ncnc3c2oc2ccccc23)c1
- AC50 [1]: 5.45 µM (active)
- AC50 [3]: 67 µM (active)
- AC50 [4]: 3.94 µM (active)

SMILES: Nc1nc(N)nc(-c2ccccn2)n1
- IC50 (Nonstructural protein 1): 19.9 µM (active)

SMILES: O=C1C(NS(=O)(=O)c2cccs2)=C(N2CCN(c3cccc(C(F)(F)F)c3)CC2)C(=O)c2ccccc21
- CC50 [9]: 12.4 µM (active)
- EC50 (Streptokinase A): > 150 µM (not active)
- IC50 (Nonstructural protein 1): 19.6 µM (active)
- EC50 (Streptococcus): 13.5 µM (active)
- EC50 [7]: 7.31 µM (active)

SMILES: COC(=O)c1cnn(-c2nc3c(C)cccc3s2)c1C
- EC50 [10]: 30 µM (not active)
- EC50 [11]: 67 µM (not active)
- EC50 [12]: 54.5 µM (not active)

SMILES: Cc1ccc2oc(=O)c3cc(C(=O)NCCCN4CCCC(C)C4)sc3c2c1 (configuration not stated)
- CC50 (Vero): > 25 µM (active)

SMILES: O=C(OCc1nnc(-c2ccccc2)o1)c1ccc(S(=O)(=O)NCc2ccco2)cc1
- IC50 [13]: 13.4 µM (active)

SMILES: Cc1ccc(S(=O)(=O)NC(=O)COc2ccccc2)cc1
- EC50 [10]: > 79.4 µM (not active)
- EC50 [11]: > 79.4 µM (not active)
- EC50 [12]: > 79.4 µM (not active)

SMILES: Cc1csc(NC(=O)CSc2sc3c(O)cc(O)nc3c2C#N)n1
- IC50 [13]: 5.14 µM (active)

SMILES: CSc1ccc(Cl)c(C(=O)NCc2ccco2)c1
- IC50 (Protein skinhead-1): > 100 µM (inactive)

SMILES: Oc1ccc(/C=C/c2ccc3cccc(O)c3n2)cc1Br
- AC50 [14]: 1.35 µM (active)
- EC50 (Streptococcus): 2.72 µM (active)
- EC50 [7]: 1.03 µM (active)

SMILES: COc1ccc(S(=O)(=O)N(C)C)cc1NC(=O)C1CCN(c2ncnc3sc(C)c(C)c23)CC1
- AC50 [1]: 9.21 µM (active)
- AC50 [3]: > 70 µM (inactive)
- AC50 [4]: 18.9 µM (active)

SMILES: N#C/C(=C/C1=C(N2CCOCC2)C(=C/c2ccccc2)/CC1)C(=O)Nc1ccccc1F
- IC50 (Nonstructural protein 1): 3.83 µM (active)

SMILES: N#C/C(=C/c1ccc(OC(=O)c2ccc(Br)s2)cc1)c1nc2ccccc2[nH]1
- IC50 [13]: 1.82 µM (active)

SMILES: CC[C@@]1(C(=O)OC)N[C@H](CN(C)C(=O)COc2ccccc2)[C@@H]2C(=O)N(Cc3ccccc3)C(=O)[C@@H]21
- AC50 [15]: 3.82 µM (active)
- AC50 [5]: 4.2 µM (active)
- AC50 [6]: 1.53 µM (active)
- AC50 [8]: 2.2 µM (active)

SMILES: CCc1nc2c(OCc3ccc(C(F)(F)F)cc3)cccn2c1N(C=O)Cc1ccc(OC)cc1
- IC50 (Fatty acid synthase): 9.21 µM (active)

SMILES: CC(=O)Oc1c(OC(C)=O)c(-c2ccc(O)c(O)c2)c(O)c(O)c1-c1ccc(O)cc1
- GI50 (SN12K1): > 100 µM (inactive)
- GI50 (P388/ADR): 20.7 µM (inactive)

SMILES: O=S(=O)(NCc1ccncc1)c1ccc(F)c(F)c1
- AC50 [1]: 2.09 µM (active)
- AC50 [3]: 54.7 µM (active)
- AC50 [4]: 1.2 µM (active)

SMILES: O=C(N/N=C/c1cc(Br)c(Br)o1)c1cc2ccccc2o1
- IC50 [13]: 5.65 µM (active)

SMILES: C=CCNc1ncnc2ccc(Br)cc12
- AC50 [15]: 6.46 µM (active)
- AC50 [5]: 5.9 µM (active)
- AC50 [6]: 39.1 µM (active)
- AC50 [8]: 4.53 µM (active)
